Peptide text beside a SMILES is read from it.
Legend:
[1] = tested on: standardized large cartilage defects; settings: in vivo; cited from earlier work
[2] = tested on: subjects with bilateral patello-femoral knee osteoarthritis; assay: Randomized double-blind placebo-controlled study of TPX-100 in patients with osteoarthritis of the knees (Example 1); assay type: in vivo, human
Description: A multicenter, randomized double-blind, placebo-controlled study was designed to investigate the safety, tolerability, pharmacokinetics, and efficacy of TPX-100 administered in four weekly doses in subjects with bilateral patello-femoral knee osteoarthritis. The study was conducted under an open IND (investigational new drug application) at CDER (Center for Drug Evaluation and Research) of the U.S. FDA (The United States Food and Drug Administration) in compliance with GCP (Good Clinical Practice) and ICH (International Conference on Harmonization of Technical Requirements for Registration of Pharmaceuticals for Human Use) guidelines. Eighteen (18) orthopedic, rheumatologic and family practice centers in the U.S. participated in the study.
The study was divided into Part A and Part B. The Part A was designed to evaluate safety of intra-articular (I.A.) administration of TPX-100 at different dosing levels (20, 50, 100, or 200 mg per injection in sequential cohorts) in the subjects with osteoarthritis of the knees and to select a dose for Part B. Part B was to evaluate safety and efficacy of the selected dose of TPX-100.
Subjects in Part A were enrolled in sequential cohorts and randomized to receive 20, 50, 100 or 200 mg of TPX-100 in one knee (Index Knee) and identical placebo in the contralateral (Control) knee. Subjects, sites and sponsor and central MRI readers were blinded as to treatment assignment. A Safety Review Committee (SRC) evaluated safety in each dosing cohort. The SRC assessed safety and determined whether the next higher dosing regimen could be enrolled. All dosing cohorts in Part A were completed and analyzed with regard to safety prior to dose selection and initiation of Part B.
Part A included four (4) intra-articular (I.A.) injections, one per week, in sequential dosing cohorts of 20, 50, 100 and 200 mg TPX-100 versus placebo. Six (6) subjects were enrolled in 20, 50, and 100 mg cohorts, respectively, and nine (9) subjects were enrolled in the 200 mg cohort.
The 200 mg dose was selected for Part B based on safety review and the approval of the SRC. […] Per the Statistical Analysis Plan, these subjects were combined with the nine subjects in the 200 mg cohort of Part A for the efficacy analysis. In total, data from 93 subjects was analyzed for drug efficacy, each of whom received 4 once-weekly injections of TPX-100, 200 mg/dose, in the Index knee and identical placebo in the contralateral knee, as randomly assigned. […]
If all clinical inclusion and exclusion criteria were met, MRIs of both knees were obtained and evaluated by a central reader to determine the ICRS grade (gICRS) of each knee as the final screening criterion. […]

defects in human molar = settings: both Phase 2 studies (alveolar bone and dentin); cited from earlier work
[3] = human, in vivo; cited from earlier work
[4] = tested on: human osteoblastic mesenchymal stem cells; settings: U.S. Pat. Nos. 7,888,462 and 8,426,558; cited from earlier work

**Q.** Which results are given for `CC[C@H](C)[C@H](NC(=O)[C@H](CC(=O)O)NC(=O)[C@H](CC(N)=O)NC(=O)[C@H](CC(=O)O)NC(=O)CNC(=O)[C@H](CCCNC(=N)N)NC(=O)[C@H](CCC(=O)O)NC(=O)[C@H](CCC(N)=O)NC(=O)[C@H](CC(C)C)NC(=O)[C@H](CC(=O)O)NC(=O)[C@@H](N)[C@@H](C)O)C(=O)N[C@@H](CO)C(=O)N1CCC[C@H]1C(=O)N[C@@H](Cc1ccccc1)C(=O)N[C@@H](CO)C(=O)NCC(=O)N[C@@H](CC(=O)O)C(=O)NCC(=O)N[C@@H](CCC(N)=O)C(=O)N1CCC[C@H]1C(=O)N[C@@H](Cc1ccccc1)C(=O)N[C@@H](CCCCN)C(=O)N[C@@H](CC(=O)O)C(N)=O` [TPX-100] (H-TDLQERGDNDISPFSGDGQPFKD-NH2; N-terminus assumed)?
**A.** Safety and tolerability [1]: safe and well-tolerated; Dose-limiting toxicities ([2]; Part A, 20, 50, 100 and 200 mg per injection): no dose-limiting toxicities; Severe adverse events ([2]; human, in vivo): no severe adverse events that were related to TPX-100 treatment; Treatment-related adverse events ([2]; human, in vivo): mild or moderate, transient; Safety and tolerability ([2]; intra-articular, Days 0, 7, 14, 21): safe and well tolerated; Tolerability (defects in human molar): well tolerated in both studies

**Q.** Which Adverse effect [3] does the source give for `N#Cc1c(N(CC(=O)[O-])CC(=O)[O-])sc(C(=O)[O-])c1CC(=O)[O-].[Sr+2].[Sr+2]` [strontium ranelate] here?
**A.** The Adverse effect was “increase the risk of myocardial infarction”.

**Q.** Which Tritium-thymidine incorporation [4] does the source give for “PDLLVRGDNDVPPFSGDGQHFMH [rat orthologue, TPX-100 orthologue (Rat/Mouse)]” here?
**A.** The Tritium-thymidine incorporation was “promote tritium-thymidine incorporation”.

Source: patent US12303590B2, “Method of treating osteoarthritis” (ORTHOTROPHIX, INC., priority 2018, dated 2025)
